Laboratory results reported in paper PMC4220016, “The binding characteristics and orientation of a novel radioligand with distinct properties at 5-HT3A and 5-HT3AB receptors” (Neuropharmacology, 2014).

What was measured:
5-HT3A receptor F226C = molecular target: T1, 5-HT3A receptor F226C (Homo sapiens, UniProt P46098, F221C); assay: Saturation binding of [^3H]VUF10166 at 5-HT3A receptor mutant; details: F226C, Loop C; read-out: Kd (nM) Mean ± SEM
T1 construct: expressed in transfected cells; host or cells: HEK 293
Protocol: (§1) Mutagenesis was performed using the QuikChange method (Agilent Technologies Inc., California, USA) on human 5-HT3A cDNA (accession number: P46098) cloned into pcDNA3.1 (Invitrogen, Paisley, UK). Cysteine residues were substituted for amino acids throughout each of the binding loops A–E (Fig. 1). To facilitate comparisons with previous work, we use the numbering of the equivalent residues in the mouse 5-HT3A subunit; for human numbering 5 should be subtracted from each residue number.
(§2) All data were analysed using GraphPad Prism 4.03. […].

5-HT3A receptor L126C = molecular target: T2, 5-HT3A receptor L126C (Homo sapiens, UniProt P46098, L121C); assay: as above; details: L126C, Loop A; read-out: Kd (nM) Mean ± SEM
T2 construct: expressed in transfected cells; host or cells: HEK 293
Protocol: as §1, §2

5-HT3A receptor Y153C = molecular target: T3, 5-HT3A receptor Y153C (Homo sapiens, UniProt P46098, Y148C); assay: as above; details: Y153C, Loop E; read-out: Kd (nM) Mean ± SEM
T3 construct: expressed in transfected cells; host or cells: HEK 293
Protocol: as §1, §2

5-HT3A receptor R145C = molecular target: T4, 5-HT3A receptor R145C (Homo sapiens, UniProt P46098, R140C); assay: as above; details: R145C, Loop E; read-out: Kd (nM) Mean ± SEM
T4 construct: expressed in transfected cells; host or cells: HEK 293
Protocol: as §1
(§3) All data were analysed using GraphPad Prism 4.03.

5-HT3A receptor R92C = molecular target: T5, 5-HT3A receptor R92C (Homo sapiens, UniProt P46098, R87C); assay: as above; details: R92C, Loop D; read-out: Kd (nM) Mean ± SEM
T5 construct: expressed in transfected cells; host or cells: HEK 293
Protocol: as §1, §3

5-HT3A receptors [1] = molecular target: T6, 5-HT3A receptors (Homo sapiens, UniProt P46098); assay: biochemical; assay type: binding; parameters: expressed in transfected cells; host or cells: HEK 293
T6 sequence (P46098 24-478): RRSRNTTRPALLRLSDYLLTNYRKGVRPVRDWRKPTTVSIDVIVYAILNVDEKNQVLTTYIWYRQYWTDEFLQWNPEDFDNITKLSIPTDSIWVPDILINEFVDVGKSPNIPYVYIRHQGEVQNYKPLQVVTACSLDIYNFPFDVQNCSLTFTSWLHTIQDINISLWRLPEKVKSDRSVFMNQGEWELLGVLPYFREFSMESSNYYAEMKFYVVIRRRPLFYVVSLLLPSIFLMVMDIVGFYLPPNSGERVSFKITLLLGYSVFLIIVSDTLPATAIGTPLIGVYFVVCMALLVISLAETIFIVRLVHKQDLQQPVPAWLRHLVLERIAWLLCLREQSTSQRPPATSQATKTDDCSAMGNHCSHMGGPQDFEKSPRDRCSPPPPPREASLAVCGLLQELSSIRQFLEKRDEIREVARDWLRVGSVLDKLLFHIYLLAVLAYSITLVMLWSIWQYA

5-HT3A receptors [2] = molecular target: T6, 5-HT3A receptors; assay: Kinetic measurements (association, dissociation) at 5-HT3A receptors; assay type: binding; parameters: expressed in transfected cells; host or cells: HEK 293; details: calculated from kinetic rates, Equ (4), read-out: Kd(nM) (kon/koff)

T5 sequence (P46098 24-478 R87C): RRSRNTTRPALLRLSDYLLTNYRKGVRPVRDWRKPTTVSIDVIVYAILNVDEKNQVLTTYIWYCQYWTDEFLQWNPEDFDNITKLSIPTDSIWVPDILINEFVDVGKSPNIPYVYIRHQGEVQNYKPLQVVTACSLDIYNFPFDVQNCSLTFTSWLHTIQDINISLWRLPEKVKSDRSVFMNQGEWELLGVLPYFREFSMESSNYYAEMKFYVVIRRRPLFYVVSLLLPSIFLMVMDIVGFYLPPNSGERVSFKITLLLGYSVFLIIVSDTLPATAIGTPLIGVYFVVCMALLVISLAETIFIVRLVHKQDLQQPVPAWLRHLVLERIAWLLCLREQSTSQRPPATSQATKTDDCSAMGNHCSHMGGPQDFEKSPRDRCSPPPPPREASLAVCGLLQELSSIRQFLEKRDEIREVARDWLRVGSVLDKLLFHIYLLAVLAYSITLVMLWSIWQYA
T1 sequence (P46098 24-478 F221C): as the sequence (P46098 24-478 R87C) above, with C64R, F198C counted along it
T2 sequence (P46098 24-478 L121C): as the sequence (P46098 24-478 R87C) above, with C64R, L98C counted along it
T3 sequence (P46098 24-478 Y148C): as the sequence (P46098 24-478 R87C) above, with C64R, Y125C counted along it
T4 sequence (P46098 24-478 R140C): as the sequence (P46098 24-478 R87C) above, with C64R, R117C counted along it

SMILES: CN1CCN(c2nc3ccccc3nc2Cl)CC1 [[^3H]VUF10166] [2-chloro-3-(4-[^3H]methylpiperazin-1-yl)quinoxaline]
- Kd (5-HT3A receptor F226C): 1.59 ± 0.08 nM
- Kd (5-HT3A receptor L126C): 0.89 ± 0.19 nM
- Kd (5-HT3A receptor Y153C): 2.03 ± 0.33 nM
- Kd (5-HT3A receptor R145C): 0.96 ± 0.35 nM
- Kd (5-HT3A receptor R92C): 0.88 ± 0.19 nM
- Kd (5-HT3A receptors [1]; 5-HT3A, tritiated ligand, transfected HEK 293 cells, 0 °C, read-out: Kd (nM) saturation): 0.18 nM
- Kd (5-HT3A receptors [1]; Wild Type, Table 5 series, read-out: Kd (nM) Mean ± SEM): 0.21 ± 0.04 nM
- Kd (5-HT3A receptors [2]): 0.16 nM
